The target in this experiment is Alpha-synuclein (Homo sapiens) (UniProt P37840). Nature of the experiment: activators of alpha-synuclein protein translation, dose response, Western blot, H4 cells (AID 2627). The following applies: alpha-synuclein protein level. On the technique in general: In western blotting, separated proteins are transferred to a membrane and probed.

Structures are written as SMILES.

For the molecule `c1ccc2c(Nc3nnc(-c4ccncc4)s3)cccc2c1`, the ECmax is 1000 nM.

(Values after PubChem BioAssay AID2627 (Broad Institute, 2010).)
